Test results published in PubChem BioAssay AID1963971 (Molecular Pharmacology Branch, DTP, NCI, 2024).

Test system: 953936-095-R-J2-PDC spheroids with HUVEC/MSC, viability
Test: Anticancer human tumor 953936-095-R-J2-PDC patient-derived cervical squamous cell carcinoma cell line growth inhibition [PI3K]
Conditions: for IC50: curve of first compound; for viability, T/C: stronger effect = lower value
Outline: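 Tumor cells grown as multi-cell spheroids with HUVEC endothelial cells and MSC fibroblast-like stroma were treated with targeted agents combined with inavolisib, alpelisib, duvelisib or copanlisib. Doses fell in half-log steps from near clinical Cmax, else from 10 microM. Viability was measured.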

[1] = second compound 0.0316 µM, first compound 0.0316 µM
[2] = second compound 0.0316 µM, first compound 0.1 µM
[3] = second compound 0.0316 µM, first compound 0.316 µM
[4] = second compound 0.0316 µM, first compound 1 µM
[5] = second compound 0.0316 µM, first compound 3.16 µM
[6] = second compound 0.0316 µM, first compound 10 µM
[7] = second compound 0.1 µM, first compound 0.0316 µM
[8] = second compound 0.1 µM, first compound 0.1 µM
[9] = second compound 0.1 µM, first compound 0.316 µM
[10] = second compound 0.1 µM, first compound 1 µM
[11] = second compound 0.1 µM, first compound 3.16 µM
[12] = second compound 0.1 µM, first compound 10 µM
[13] = second compound 0.316 µM, first compound 0.0316 µM
[14] = second compound 0.316 µM, first compound 0.1 µM
[15] = second compound 0.316 µM, first compound 0.316 µM
[16] = second compound 0.316 µM, first compound 1 µM
[17] = second compound 0.316 µM, first compound 3.16 µM
[18] = second compound 0.316 µM, first compound 10 µM
[19] = second compound 1 µM, first compound 0.0316 µM
[20] = second compound 1 µM, first compound 0.1 µM
[21] = second compound 1 µM, first compound 0.316 µM
[22] = second compound 1 µM, first compound 1 µM
[23] = second compound 1 µM, first compound 3.16 µM
[24] = second compound 1 µM, first compound 10 µM
[25] = second compound 3.16 µM, first compound 0.0316 µM
[26] = second compound 3.16 µM, first compound 0.1 µM
[27] = second compound 3.16 µM, first compound 0.316 µM
[28] = second compound 3.16 µM, first compound 1 µM
[29] = second compound 3.16 µM, first compound 3.16 µM
[30] = second compound 3.16 µM, first compound 10 µM
[31] = second compound 10 µM, first compound 0.0316 µM
[32] = second compound 10 µM, first compound 0.1 µM
[33] = second compound 10 µM, first compound 0.316 µM
[34] = second compound 10 µM, first compound 1 µM
[35] = second compound 10 µM, first compound 3.16 µM
[36] = second compound 10 µM, first compound 10 µM
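Note: spheroids exposed to compounds for seven days before read-out.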

CC(C)NCC(C(=O)N1CCN(c2ncnc3c2C(C)CC3O)CC1)c1ccc(Cl)cc1 (stereo not drawn) + CC(Nc1ncnc2nc[nH]c12)c1cc2cccc(Cl)c2c(=O)n1-c1ccccc1
IC50 (second compound 0.0316 µM): 952 nM | IC50 (second compound 0.1 µM): 1010 nM | IC50 (second compound 0.316 µM): 922 nM | IC50 (second compound 1 µM): 1050 nM | IC50 (second compound 3.16 µM): 873 nM | IC50 (second compound 10 µM): 393 nM | viability, T/C [1]: 94.7% | viability, T/C [2]: 99.8% | viability, T/C [3]: 77.9% | viability, T/C [4]: 49.6% | viability, T/C [5]: 22.6% | viability, T/C [6]: 14.1% | viability, T/C [7]: 100% | viability, T/C [8]: 104% | viability, T/C [9]: 75.8% | viability, T/C [10]: 52.5% | viability, T/C [11]: 24.3% | viability, T/C [12]: 14.3% | viability, T/C [13]: 111% | viability, T/C [14]: 98.1% | viability, T/C [15]: 82% | viability, T/C [16]: 47.9% | viability, T/C [17]: 23.1% | viability, T/C [18]: 17.1% | viability, T/C [19]: 104% | viability, T/C [20]: 82.9% | viability, T/C [21]: 73.5% | viability, T/C [22]: 53.9% | viability, T/C [23]: 26.2% | viability, T/C [24]: 13.4% | viability, T/C [25]: 79.7% | viability, T/C [26]: 79.1% | viability, T/C [27]: 72.9% | viability, T/C [28]: 45.7% | viability, T/C [29]: 23.6% | viability, T/C [30]: 12.7% | viability, T/C [31]: 61.1% | viability, T/C [32]: 58.3% | viability, T/C [33]: 51.7% | viability, T/C [34]: 40% | viability, T/C [35]: 20.1% | viability, T/C [36]: 9.46%

CCN1CCN(Cc2ccc(Nc3ncc(F)c(-c4cc(F)c5nc(C)n(C(C)C)c5c4)n3)nc2)CC1 + CC(Nc1ncnc2nc[nH]c12)c1cc2cccc(Cl)c2c(=O)n1-c1ccccc1
IC50 (second compound 0.0316 µM): > 1000 nM | IC50 (second compound 0.1 µM): > 1000 nM | IC50 (second compound 0.316 µM): > 1000 nM | IC50 (second compound 1 µM): > 1000 nM | IC50 (second compound 3.16 µM): > 1000 nM | IC50 (second compound 10 µM): > 1000 nM | viability, T/C (second compound 0.0316 µM, first compound 0.00316 µM): 102% | viability, T/C (second compound 0.0316 µM, first compound 0.01 µM): 101% | viability, T/C [1]: 96.1% | viability, T/C [2]: 103% | viability, T/C [3]: 87.5% | viability, T/C [4]: 89.1% | viability, T/C (second compound 0.1 µM, first compound 0.00316 µM): 104% | viability, T/C (second compound 0.1 µM, first compound 0.01 µM): 106% | viability, T/C [7]: 111% | viability, T/C [8]: 93% | viability, T/C [9]: 86% | viability, T/C [10]: 81.3% | viability, T/C (second compound 0.316 µM, first compound 0.00316 µM): 100% | viability, T/C (second compound 0.316 µM, first compound 0.01 µM): 108% | viability, T/C [13]: 103% | viability, T/C [14]: 90.5% | viability, T/C [15]: 83.8% | viability, T/C [16]: 79.2% | viability, T/C (second compound 1 µM, first compound 0.00316 µM): 97% | viability, T/C (second compound 1 µM, first compound 0.01 µM): 97.7% | viability, T/C [19]: 104% | viability, T/C [20]: 82.9% | viability, T/C [21]: 76% | viability, T/C [22]: 74.2% | viability, T/C (second compound 3.16 µM, first compound 0.00316 µM): 87.8% | viability, T/C (second compound 3.16 µM, first compound 0.01 µM): 78.6% | viability, T/C [25]: 81.8% | viability, T/C [26]: 73.9% | viability, T/C [27]: 71.1% | viability, T/C [28]: 64% | viability, T/C (second compound 10 µM, first compound 0.00316 µM): 59.6% | viability, T/C (second compound 10 µM, first compound 0.01 µM): 57.2% | viability, T/C [31]: 57.2% | viability, T/C [32]: 62.1% | viability, T/C [33]: 52.8% | viability, T/C [34]: 49.8%

Cn1ncc(Cl)c1-c1cc(C(=O)NC(CN)Cc2cccc(F)c2)sc1Cl (stereo not drawn) + CC(Nc1ncnc2nc[nH]c12)c1cc2cccc(Cl)c2c(=O)n1-c1ccccc1
IC50 (second compound 0.0316 µM): 630 nM | IC50 (second compound 0.1 µM): 617 nM | IC50 (second compound 0.316 µM): 547 nM | IC50 (second compound 1 µM): 490 nM | IC50 (second compound 3.16 µM): 467 nM | IC50 (second compound 10 µM): 146 nM | viability, T/C [1]: 96.5% | viability, T/C [2]: 90.2% | viability, T/C [3]: 67.9% | viability, T/C [4]: 36.9% | viability, T/C [5]: 21.8% | viability, T/C [6]: 12% | viability, T/C [7]: 95.2% | viability, T/C [8]: 90% | viability, T/C [9]: 67% | viability, T/C [10]: 37.5% | viability, T/C [11]: 20% | viability, T/C [12]: 14.9% | viability, T/C [13]: 94.1% | viability, T/C [14]: 81.6% | viability, T/C [15]: 58.4% | viability, T/C [16]: 40% | viability, T/C [17]: 22.4% | viability, T/C [18]: 12.6% | viability, T/C [19]: 95.5% | viability, T/C [20]: 83.5% | viability, T/C [21]: 58.1% | viability, T/C [22]: 36.3% | viability, T/C [23]: 18.1% | viability, T/C [24]: 13.5% | viability, T/C [25]: 82.3% | viability, T/C [26]: 77.8% | viability, T/C [27]: 56.7% | viability, T/C [28]: 34.4% | viability, T/C [29]: 18% | viability, T/C [30]: 8.95% | viability, T/C [31]: 55.5% | viability, T/C [32]: 54.5% | viability, T/C [33]: 42.9% | viability, T/C [34]: 30.5% | viability, T/C [35]: 14.6% | viability, T/C [36]: 5.78%

Cn1nccc1Nc1nccc(-c2ccn(C(CO)c3ccc(Cl)c(F)c3)c(=O)c2)n1 (stereo not drawn) + CC(Nc1ncnc2nc[nH]c12)c1cc2cccc(Cl)c2c(=O)n1-c1ccccc1
IC50 (second compound 0.0316 µM): > 10000 nM | IC50 (second compound 0.1 µM): > 10000 nM | IC50 (second compound 0.316 µM): > 10000 nM | IC50 (second compound 1 µM): > 10000 nM | IC50 (second compound 3.16 µM): > 10000 nM | IC50 (second compound 10 µM): > 10000 nM | viability, T/C [1]: 90.7% | viability, T/C [2]: 100% | viability, T/C [3]: 92% | viability, T/C [4]: 102% | viability, T/C [5]: 88.3% | viability, T/C [6]: 80.1% | viability, T/C [7]: 94.3% | viability, T/C [8]: 90.6% | viability, T/C [9]: 91% | viability, T/C [10]: 90.8% | viability, T/C [11]: 88% | viability, T/C [12]: 66% | viability, T/C [13]: 98.2% | viability, T/C [14]: 97.2% | viability, T/C [15]: 91.6% | viability, T/C [16]: 83.8% | viability, T/C [17]: 75.6% | viability, T/C [18]: 73.6% | viability, T/C [19]: 102% | viability, T/C [20]: 76.9% | viability, T/C [21]: 95.9% | viability, T/C [22]: 86.1% | viability, T/C [23]: 81.4% | viability, T/C [24]: 82.4% | viability, T/C [25]: 74.6% | viability, T/C [26]: 69.9% | viability, T/C [27]: 70.7% | viability, T/C [28]: 76.4% | viability, T/C [29]: 68.8% | viability, T/C [30]: 77.3% | viability, T/C [31]: 53.7% | viability, T/C [32]: 52.3% | viability, T/C [33]: 57.4% | viability, T/C [34]: 51.6% | viability, T/C [35]: 51.1% | viability, T/C [36]: 56.9%
